Laboratory results from patent publication US4558060A, “Benzoxazolinones” (Riom Laboratories - Cerm S.A., priority 1982, dated 1985).
Counter-ions that a name gives are not always drawn. Like-named read-outs stand apart in the source and are kept apart here.

What was measured:
[1] = Acute toxicity (mortality after 24 hours); conditions: mouse, in vivo, po
Protocol: (§1) The acute toxicity and central nervous system activity of the compounds of the invention were investigated in mice using various test-models. These tests were carried out in accordance with the procedures summarised below.
Male mice of the OF1, IFFA, CREDO strain and having an average weight of 22±1 g, receive, by oesophagial intubation, a solution of arabic gum and distilled water (1/2-1/2) containing the compound to be studied, at a rate of 0.25 ml per 20 g of body weight. The symptomatology of the intoxication was observed and the mortality was recorded after 24 hours.

mice [2] = experiment: Spontaneous motility; assay type: in vivo; conditions: Mus musculus, 20 min, read-out: Spontaneous motility, variation; for change in vivo at 25 mg/kg: dose 25 mg.kg^-1
Protocol: as §1
Groups of 4 mice prepared as above are placed in circular corridors intersected by infrared beams, making it possible to count the number of movements made by the animals. The number of movements is summed up after 20 minutes and the results are expressed as the percentage variation relative to the group of control animals, which have only received the vehicle (gum arabic/water).

mice [3] = experiment: Hypnotic activity (sleep induction time, sleep time); assay type: in vivo
Protocol: as §1
Mice receive, by intraperitoneal administration, 0.25 ml per 20 g of body weight of a solution consisting of arabic gum and of 0.154M NaCl solution (1/2-1/2) containing 12.5 mg.kg.^-1 of the compound to be studied, and the "sleep induction time"--the time taken for the loss of righting reflex to appear after the animal has been placed in the dorsal decubitus position--and the "sleep time"--the duration of the above loss of reflex--are then noted. For this test, pentobarbital is given as a reference, administered at a dose of 50 mg.kg.^-1.

dogs = experiment: Pentobarbital-induced heart failure in anaesthetized dogs, intraduodenal administration; assay type: in vivo; conditions: 1 mg/kg I.D.; for Aortic capacity / Bradycardia and hypotension induced by pentobarbital / Inotropic effect: after 20 minutes
Text: In addition to the activity pattern described above the compounds of formula I, in which R1 and R2 both represent hydrogen have a particularly beneficial effect in the treatment of heart failure. The latter activity has been tested using a technique derived from Deitchman and Snyder, Arch.Int. Pharmacodyn. 250, 65 (1981).
After having been anaesthesized dogs under articicial respiration are connected with pieces of apparatus for continuous monitoring the left intraventicular pressure, the dP/dt max, the amplitude of the left ventricular contraction, the aortic capacity, the heart frequency and the arteric pressure.
Heart failure is induced by intravenous administration of pentobarbital at a dose of 20 mg per kg body weight per minute until a decrease of 50% of dP/dt max is obtained after which this level is maintained by pentobarbital administration at a dose of 0.4 mg/kg/min. Ten minutes after the beginning of this heart failure effect the products to be tested are administered. The results are compared with those obtained using Dopamine and Dobutamine as reference compounds.
Then the test was repeated by administering the products intraduodenally (I.D.). Dopamine and Dobutamine were administered at a dose of 10 mg/kg I.D. and the compounds of the invention at a dose of 1 mg/kg.

[4] = mice, oesophagial intubation, mortality after 24 hours, read-out: Estimated LD 50
[5] = dose 50 mg.kg^-1, relative to control animals, 20 minutes
[6] = pentobarbital reference, 50 mg.kg^-1
[7] = relative to control animals, 20 minutes

For `Cn1c(=O)oc2cc(CCN3CCOCC3)ccc21` [Compound 4], the LD50 at 24 h [1, 4] was 1200 mg/kg and the change in vivo at 12.5 mg/kg (mice [2]; dose 12.5 mg.kg^-1, relative to control animals, 20 minutes) was -11.9%.
In the case of `O=c1[nH]c2ccc(CCN3CCN(c4ccc(F)cc4)CC3)cc2o1` [Compound 19], the LD50 at 24 h [1, 4] is reported as 1000 mg/kg, the change in vivo at 6.25 mg/kg (mice [2]) is reported as -97% and the “Hypnotic activity (in words)” value (mice [3]; 12.5 mg.kg^-1, intraperitoneal) is reported as “strong hypnotic activity”. For the same molecule, the “Hypnotic activity, sleep induction time” value (mice [3]; 12.5 mg.kg^-1, intraperitoneal) was 15.1 ± 2 min and the “Hypnotic activity, sleep time” value (mice [3]; 12.5 mg.kg^-1, intraperitoneal) was 78 ± 16 min.
Molecule `Cn1c(=O)oc2cc(CCN3CCN(c4cccc(C(F)(F)F)c4)CC3)ccc21` [Compound 3] has an LD50 at 24 h [1] of 1000 mg/kg and a change in vivo at 50 mg/kg (mice [2]; [5]) of -97.5%.
In the case of `CCCC(C)C1(CC)C(=O)NC(=O)NC1=O` (stereo not drawn) [pentobarbital, reference compound], the “Hypnotic activity, sleep induction time (reference)” value (mice [3]; [6]) is reported as 9.5 ± 2.2 min and the “Hypnotic activity, sleep time (reference)” value (mice [3]; [6]) is reported as 48 ± 7 min.
With `COc1ccccc1N1CCN(CCc2ccc3c(c2)oc(=O)n3C)CC1` [Compound 9, 3-Methyl-6-(2-[4-(2-methoxyphenyl)-piperazin-1-yl]-ethyl)-benzoxazolinone] the LD50 at 24 h [1, 4] was 600 mg/kg, the change in vivo at 6.25 mg/kg (mice [2]) was -93.2% and the “Hypnotic activity, sleep induction time” value (mice [3]; 12.5 mg.kg^-1, intraperitoneal) was 18 ± 7.5 min. The “Hypnotic activity, sleep time” value (mice [3]; 12.5 mg.kg^-1, intraperitoneal) was 46.2 ± 15 min.
`Cn1c(=O)oc2cc(CCN3CCN(c4ncccn4)CC3)ccc21` [Compound 7] showed an LD50 at 24 h [1] of 1200 mg/kg and a change in vivo at 50 mg/kg (mice [2]; [5]) of -69.9%.
In the case of `Cn1c(=O)oc2cc(CCN3CCN(c4ccc(F)cc4)CC3)ccc21` [Compound 18, 3-Methyl-6-(-[4-(4-fluorophenyl)-piperazin-1-yl]-ethyl)-benzoxazolinone], the LD50 at 24 h [1, 4] is reported as 1000 mg/kg, the change in vivo at 6.25 mg/kg (mice [2]) is reported as -98.8% and the “Hypnotic activity, sleep induction time” value (mice [3]; 12.5 mg.kg^-1, intraperitoneal) is reported as 26.9 ± 6 min. For the same molecule, the “Hypnotic activity, sleep time” value (mice [3]; 12.5 mg.kg^-1, intraperitoneal) was 132 ± 25 min.
Work on `O=c1[nH]c2ccc(CCN3CCN(c4cccc(C(F)(F)F)c4)CC3)cc2o1` [Compound 8] yielded an LD50 at 24 h [1] of 1000 mg/kg and a change in vivo at 25 mg/kg (mice [2]; [7]) of -93.5%.
With `CNCCc1ccc2[nH]c(=O)oc2c1` [Compound 12] the LD50 at 24 h [1, 4] was 1200 mg/kg and the change in vivo at 50 mg/kg (mice [2]) was -28%.
In the case of `Cn1c(=O)oc2cc(CCN)ccc21` [Compound 2, 3-Methyl-6-(2-aminoethyl)-benzoxazolinone(hydrochloride)], the “Duration of the effects” value (dogs) is reported as “at least 60 minutes”, the Aortic capacity (dogs) is reported as “increase of the aortic capacity” and the “Bradycardia and hypotension induced by pentobarbital” value (dogs) is reported as “recovery of the bradycardia and the hypotension induced by pentobarbital”. For the same molecule, the Inotropic effect (dogs) was “strong positive inotropic effect”.
Molecule `O=c1[nH]c2ccc(CCN3CCN(c4ncccn4)CC3)cc2o1` [Compound 17] has an LD50 at 24 h [1] of 480 mg/kg and a change in vivo at 25 mg/kg (mice [2]; [7]) of -62.8%.
In the case of `NCCc1ccc2[nH]c(=O)oc2c1` [Compound 15], the LD50 at 24 h [1, 4] is reported as 1200 mg/kg, the change in vivo at 50 mg/kg (mice [2]) is reported as -23.2% and the Aortic capacity (dogs) is reported as “increase of the aortic capacity”. The “Bradycardia and hypotension induced by pentobarbital” value (dogs) was “recovery of the bradycardia and the hypotension induced by pentobarbital” and the Inotropic effect (dogs) was “strong positive inotropic effect”.
In the case of `COc1ccccc1N1CCN(CCc2ccc3[nH]c(=O)oc3c2)CC1` [Compound 10, 6-(2-[4-(2-methoxyphenyl)-piperazin-1-yl]-ethyl)-benzoxazolinone], the LD50 at 24 h [1, 4] is reported as 1000 mg/kg, the change in vivo at 6.25 mg/kg (mice [2]) is reported as -99.3% and the “Hypnotic activity, sleep induction time” value (mice [3]; 12.5 mg.kg^-1, intraperitoneal) is reported as 18.2 ± 4.3 min. For the same molecule, the “Hypnotic activity, sleep time” value (mice [3]; 12.5 mg.kg^-1, intraperitoneal) was 86 ± 15 min.
`Cn1c(=O)oc2cc(CCNC3CC3)ccc21` [Compound 16] gave an LD50 at 24 h [1, 4] of 600 mg/kg and a change in vivo at 50 mg/kg (mice [2]) of -34.4%.
